Experimental data published in patent US10106558B2, “Azolobenzazine compounds, compositions comprising these compounds and their use for controlling invertebrate pests” (BASF SE, priority 2015, dated 2018).

Assays:
Assay type in all cases: in vivo
[1] = tested on: yellow fever mosquito (Aedes aegypti); experiment: whole plant or invertebrate; conditions: 48 h, larval mortality visually assessed after 2 days, read-out: mortality in comparison with untreated controls
Method in brief: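 Freshly hatched larvae (5-15 per well) held in 200 μl tap water; compounds formulated in 25% DMSO/water and 2.5 μl sprayed at several concentrations, two replicates. Plates kept 2 days at 28 °C, 80% RH, then larval mortality scored visually.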

[2] = tested on: Mediterranean fruitfly (Ceratitis capitata); experiment: Action on Mediterranean fruitfly, eggs on insect diet in microtiter plates; conditions: 120 h, egg and larval mortality visually assessed after 5 days, read-out: mortality in comparison with untreated controls
Method in brief: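 Microtiter plates held insect diet plus 50-80 C. capitata eggs; compounds in 75% water/25% DMSO were sprayed onto the diet at several concentrations, two replicates. Plates were kept at about […] and […] relative humidity for 5 days, then egg and larval mortality was scored visually.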

[3] = tested on: vetch aphid (Megoura viciae); experiment: Action on vetch aphid, broad bean leaf disks in 24-well microtiter plates; conditions: foliar, 120 h, adult aphids on treated leaf disks, 5 days, read-out: mortality in comparison with untreated controls
Experimental: Example B7: Action on Vetch Aphid (Megoura viciae)
For evaluating control of vetch aphid (Megoura viciae) through contact or systemic means the test unit consisted of 24-well-microtiter plates containing broad bean leaf disks.
The compounds were formulated using a solution containing 75% v/v water and 25% v/v DMSO. Different concentrations of formulated compounds were sprayed onto the leaf disks at 2.5 μl, using a custom built micro atomizer, at two replications.
After application, the leaf disks were air-dried and 5-8 adult aphids placed on the leaf disks inside the microtiter plate wells. The aphids were then allowed to suck on the treated leaf disks and incubated at about 23±1° C. and about 50±5% relative humidity for 5 days. Aphid mortality and fecundity was then visually assessed.

Measured: mortality at 800 ppm

Cc1ccc(C(C)C)c(N2C(=O)CS/C2=N\N=C\c2ccc3c(ccc4c3ncn4-c3ccc(OC(F)(F)F)cc3)n2)c1 [Compound C-6, (2Z)-3-(2-isopropyl-5-methyl-phenyl)-2-[(E)-[3-[4-(trifluoromethoxy)phenyl]imidazo[4,5-f]quinolin-7-yl]methylenehydrazono]thiazolidin-4-one]
≥ 75%: all assays above
